From patent publication EP0118120A2, “1,4-Dihydropyridine compound” (priority 1983, dated 1984)

Legend:
[1] = test system: liver disorder induced by carbon tetrachloride; experiment: Effect on liver disorder induced by carbon tetrachloride in rats, serum GOT, GPT, AlP, bilirubin (Example 26); assay type: in vivo, SLC-Wistar male rats
Description: (§1) Effect of the compounds according to the present invention on liver disorder induced by carbon tetrachloride
(§2) The effects of the sample compounds to be tested on hepatic disorder were evaluated by determining the levels of GOT, GPT, AlP, and bilirubin, which are known as an indicator of hepatic disorder, in serum, after administering carbon tetrachloride and the sample compounds to SLC-Wistar male rats (9 weeks old and body weight of 210 to 250 g in Tables 1, 3, and 4, and 10 weeks old and body weight of 230 to 260 g in Table 2) as follows.
(§3) Five rats were used in each test group. The sample compound (i.e., each compound listed below) was suspended at a concentration of 40 mg/ml in a 0.1% aqueous solution of Tween-80 (i.e., nonionic surfactant available from Atlas Powder Co., Ltd.). The resultant suspension was orally administered at a dose of 200 mg/kg each at 25 hours and 1 hour before the administration of carbon tetrachloride, except for the control group. For the control group to which only carbon tetrachloride was administered in the evaluation test, a 0.1% aqueous Tween-80 was orally administered at a dose of 5 ml/kg in the same manner.
(§4) Carbon tetrachloride was intraperiotoneally administered as a 10% olive oil solution at a dose of 5 ml/kg (0.5 ml/kg in terms of CC14) one hour after the final administration of the sample compound. For the control (normal) group, olive oil was intraperitoneally administered in the same manner at a dose of 5 ml/kg.
(§5) Blood samples were collected from the carotid artery under pentobarbital anesthesia, 24 hours after the administration of carbon tetrachloride. The rats were fasted for 18 to 22 hours before collecting the blood samples.
(§6) The determination of GOT and GPT in serum was carried out according to a UV method, the determination of AlP was carried cut according to Bessy-Lowry method, and the determination of bilirubin was carried out according to a diazo method.

[2] = test system: liver disorder induced by carbon tetrachloride; experiment: Effect on liver disorder induced by carbon tetrachloride in rats, repeat with 8 weeks old rats (Example 27); assay type: in vivo, SLC-Wistar male rats; conditions: serum 24 hours after CCl4, 200 mg/kg orally x2, rats 8 weeks old
Description: as §2, §3, §4, §5, §6, §1
The evaluation tests of Example 26 were repeated except that SLC-Wistar male rats (8 weeks old and body weight of 170 to 210 g) were used.

[3] = Acute toxicity, oral LD50 in rats (Example 28); conditions: rat, in vivo, male rats 5 weeks old, 130 to 150 g, observed for one week
From the text: Acute toxicity of the compounds according to the present invention

[4] = Table 3, serum 24 hours after CCl4, 200 mg/kg orally x2, rats 9 weeks old, CCl4 only 0.38 ± 0.06, normal 0.22 ± 0.04
[5] = Table 3, serum 24 hours after CCl4, 200 mg/kg orally x2, rats 9 weeks old, CCl4 only 34.4 ± 2.6, normal 27.0 ± 0.5
[6] = Table 3, serum 24 hours after CCl4, 200 mg/kg orally x2, rats 9 weeks old, CCl4 only 9188 ± 1815, normal 30 ± 2
[7] = Table 3, serum 24 hours after CCl4, 200 mg/kg orally x2, rats 9 weeks old, CCl4 only 13189 ± 2205, normal 81 ± 3
[8] = Table 5, 170 to 210 g, CCl4 only 27875 ± 3628, normal 78 ± 3
[9] = Table 5, CCl4 only 0.55 ± 0.16, normal 0.10 ± 0.00
[10] = Table 5, CCl4 only 41.3 ± 2.5, normal 25.7 ± 0.4
[11] = Table 5, CCl4 only 12984 ± 1465, normal 30 ± 3
[12] = Table 4, serum 24 hours after CCl4, 200 mg/kg orally x2, rats 9 weeks old, CCl4 only 0.38 ± 0.04, normal 0.10 ± 0.00
[13] = Table 4, serum 24 hours after CCl4, 200 mg/kg orally x2, rats 9 weeks old, CCl4 only 35.0 ± 2.0, normal 24.4 ± 0.7
[14] = Table 4, serum 24 hours after CCl4, 200 mg/kg orally x2, rats 9 weeks old, CCl4 only 10523 ± 2313, normal 31 ± 3
[15] = Table 4, serum 24 hours after CCl4, 200 mg/kg orally x2, rats 9 weeks old, CCl4 only 17704 ± 4140, normal 76 ± 4
[16] = Table 1, serum 24 hours after CCl4 0.5 ml/kg i.p., compound 200 mg/kg orally 25 hours and 1 hour before CCl4, rats 9 weeks old, CCl4 only 17327 ± 2336, normal 76 ± 1
[17] = Table 1, serum 24 hours after CCl4, 200 mg/kg orally x2, rats 9 weeks old, CCl4 only 0.62 ± 0.30, normal 0.10 ± 0.00
[18] = Table 1, serum 24 hours after CCl4, 200 mg/kg orally x2, rats 9 weeks old, CCl4 only 35.5 ± 2.5, normal 23.6 ± 0.4
[19] = Table 1, serum 24 hours after CCl4, 200 mg/kg orally x2, rats 9 weeks old, CCl4 only 10496 ± 1221, normal 31 ± 2

CC(=O)C1=C(C)NC(C)=C(C(C)=O)C1C1=CSCCS1 [Sample Compound Q, 3,5-diacetyl-4-[2-(5,6-dihydro-1,4-dithiinyl)]-2,6-dimethyl-1,4-dihydropyridine]
Bilirubin [1, 4]: 0.26 ± 0.02 mg/dL
AlP [1, 5]: 29.8 ± 1.3 K-AU.
GPT [1, 6]: 1891 ± 357 K.U.
GOT [1, 7]: 2583 ± 540 K.U.

COCOC(=O)C1=C(C)N(COC)C(C)=C(C(=O)OCOC)C1C1=COCCO1 [Sample Compound S, bis(methoxymethyl) 4-[2-(5,6-dihydro-p-dioxinyl)]-1-methoxymethyl-2,6-dimethyl-1,4-dihydropyridine-3,5-dicarboxylate]
GOT [2, 8]: 461 ± 162 K.U.
Bilirubin [2, 9]: 0.10 ± 0.00 mg/dL
AlP [2, 10]: 26.3 ± 0.8 K-AU.
GPT [2, 11]: 313 ± 120 K.U.

COCCOC(=O)C1=C(C)NC(C)=C(C(=O)OCCOC)C1C1=COCCO1 [Sample Compound J, bis (2-methoxyethyl) 4-[2-(5,6-dihydro-p-dioxinyl)]-2,6-dimethyl-1,4-dihydropyridine-3,5-dicarboxylate]
LD50 at 168 h [3]: > 1000 mg/kg
Bilirubin [1, 12]: 0.18 ± 0.03 mg/dL
AlP [1, 13]: 27.4 ± 2.6 K-AU.
GPT [1, 14]: 626 ± 179 K.U.
GOT [1, 15]: 807 ± 211 K.U.

CC(=O)C1=C(C)NC(C)=C(C#N)C1C1=COCCO1 (centres unmarked) [Sample Compound B, 3-acetyl-5-cyano-4-[2-(5,6-dihydro-p-dioxinyl)]-2,6-dimethyl-l,4-dihydropyridine]
GOT [1, 16]: 1604 ± 569 K.U.
Bilirubin [1, 17]: 0.20 ± 0.00 mg/dL
AlP [1, 18]: 34.1 ± 3.4 K-AU.
GPT [1, 19]: 1023 ± 368 K.U.

COC(=O)C1=C(C)NC(C)=C(C(C)=O)C1C1=COCCO1 (centres unmarked) [Sample Compound M, methyl 5-acetyl-4-[2-(5,6-dihydro-p-dioxinyl)]-2,6-dimethyl-l,4-dihydropyridine-3-carboxylate]
Bilirubin [1, 12]: 0.20 ± 0.00 mg/dL
AlP [1, 13]: 29.1 ± 1.1 K-AU.
GPT [1, 14]: 428 ± 88 K.U.
GOT [1, 15]: 807 + 176 K.U.

CC(=O)C1=C(C)NC(C)=C(C(C)=O)C1C1=COCCO1 [Sample Compound L, 3,5-diacetyl-4-[2-(5,6-dihydro-p-dioxinyl)]-2,6-dimethyl-1,4-dihydropyridine]
LD50 at 168 h [3]: > 1000 mg/kg
Bilirubin [1, 12]: 0.22 ± 0.02 mg/dL
AlP [1, 13]: 34.2 ± 1.5 K-AU.
GPT [1, 14]: 285 ± 96 K.U.
GOT [1, 15]: 429 ± 113 K.U.

COCCOC(=O)C1=C(C)NC(C)=C(C(C)=O)C1C1=COCCO1 (centres unmarked) [Sample Compound N, 2-methoxyethyl 5-acetyl-4-[2-(5,6-dihydro-p-dioxinyl)]-2,6-dimethyl-1,4-dihydropyridine-3-carboxylate]
Bilirubin [1, 12]: 0.18 ± 0.02 mg/dL
AlP [1, 13]: 28.5 ± 1.7 K-AU.
GPT [1, 14]: 2860 ± 858 K.U.
GOT [1, 15]: 3430 ± 922 K.U.

COC(=O)C1=C(C)NC(C)=C(C(=O)OC(C)C)C1C1=COCCO1 (centres unmarked) [Sample Compound K, isopropyl methyl 4-[2-(5,6-dihydro-p-dioximyl)]-2,6-dimethyl-1,4-dihydropyridine-3,5-dicarboxylate]
Bilirubin [1, 12]: 0.24 ± 0.02 mg/dL
AlP [1, 13]: 29.6 ± 0.8 K-AU.
GPT [1, 14]: 1657 ± 436 K.U.
GOT [1, 15]: 2290 ± 619 K.U.

COC(=O)C1=C(C)NC(C)=C(C(=O)OC)C1C1=C(C)OC(C)CO1 (centres unmarked) [Sample Compound T, dimethyl 2,6-dimethyl-4-[2-(3,5-dimethyl-5,6-dihydro-p-dioxinyl)] -1,4-dihydropyridine-3,5-dicarbcxylate]
GOT [2, 8]: 5538 ± 954 K.U.
Bilirubin [2, 9]: 0.25 ± 0.03 mg/dL
AlP [2, 10]: 34.4 ± 1.7 K-AU.
GPT [2, 11]: 4156 ± 196 K.U.

COCOC(=O)C1=C(C)NC(C)=C(C(=O)OCOC)C1C1=C(C)OC(C)CO1 (centres unmarked) [Sample Compound U, bis (methcxymethyl) 2,6-dimethyl-4-[2-(3,5-dimethyl-5,6-dihydro-p-dioxinyl)]-1,4-dihydropyridine-3,5-dicarboxylate]
GOT [2, 8]: 608 ± 214 K.U.
Bilirubin [2, 9]: 0.10 ± 0.00 mg/dL
AlP [2, 10]: 27.0 ± 1.0 K-AU.
GPT [2, 11]: 384 ± 135 K.U.

CC(=O)C1=C(C)NC(C)=C(C(C)=O)C1C1=COCCC1 [Sample Compound P, 3,5-diacetyl-4-[5-(3,4-dihydro-2H-pyranyl)]-2,6-dimethyl-1,4-dihydropyridine]
Bilirubin [1, 4]: 0.32 ± 0.02 mg/dL
AlP [1, 5]: 35.1 ± 1.4 K-AU.
GPT [1, 6]: 616 ± 193 K.U.
GOT [1, 7]: 899 ± 252 K.U.

CC(=O)C1=C(C)NC(C)=C(C(C)=O)C1C1=C(C)OCCO1 [Sample Compound W, 3,5-diacetyl-2,6-dimethyl-4-[2-(3-methyl-5,6-dihydro-p-dioxinyl)]-1,4-dihydropyridine]
Bilirubin ([2]; Table 6, CCl4 only 0.50 ± 0.08, normal 0.12 ± 0.02): 0.20 ± 0.00 mg/dL
AlP ([2]; Table 6, CCl4 only 52.5 ± 2.2, normal 36.3 ± 1.6): 49.5 ± 3.0 K-AU.
GPT ([2]; Table 6, CCl4 only 12606 ± 1688, normal 39 ± 4): 805 ± 195 K.U.
GOT ([2]; Table 6, CCl4 only 23424 ± 3360, normal 79 ± 2): 1194 ± 234 K.U.

COCC(C)OC(=O)C1=C(C)NC(C)=C(C(=O)OC(C)COC)C1C1=COCCO1 (centres unmarked) [Sample Compound D, bis(1-methyl-2-methoxyethyl) 4-[2-(5,6-dihydro-p-dioxinyl)]-2,6-dimethyl-l,4-dihydropyridine-3,5-dicarboxylate]
GOT [1, 16]: 2572 ± 518 K.U.
Bilirubin [1, 17]: 0.20 ± 0.00 mg/dL
AlP [1, 18]: 31.0 ± 1.5 K-AU.
GPT [1, 19]: 2050 ± 419 K.U.

COC(=O)C1=C(C)NC(C)=C(C#N)C1C1=COCCO1 (centres unmarked) [Sample Compound C, methyl 5-cyano-4-[2-(5,6-dihydro-p-dioxinyl)]-2,6-dimethyl-1,4-dihydropyridine-3-carboxylate]
GOT ([1]; Table 2, serum 24 hours after CCl4, 200 mg/kg orally x2, rats 10 weeks old, 230 to 260 g, CCl4 only 20701 ± 2821, normal 89 ± 12): 1447 ± 313 K.U.
Bilirubin ([1]; Table 2, serum 24 hours after CCl4, 200 mg/kg orally x2, rats 10 weeks old, CCl4 only 0.40 ± 0.09, normal 0.10 ± 0.00): 0.20 ± 0.00 mg/dL
AlP ([1]; Table 2, serum 24 hours after CCl4, 200 mg/kg orally x2, rats 10 weeks old, CCl4 only 32.3 ± 2.8, normal 22.7 ± 0.6): 31.7 ± 3.2 K-AU.
GPT ([1]; Table 2, serum 24 hours after CCl4, 200 mg/kg orally x2, rats 10 weeks old, CCl4 only 11034 ± 1354, normal 41 ± 3): 912 ± 198 K.U.

CC1=C(C(=O)OC(C)C)C(C2=COCCO2)C(C(=O)OC(C)C)=C(C)N1 [Sample Compound G]
Bilirubin [1, 12]: 0.22 ± 0.02 mg/dL
AlP [1, 13]: 31.5 ± 1.2 K-AU.
GPT [1, 14]: 2994 ± 638 K.U.
GOT [1, 15]: 3482 ± 707 K.U.
